Measurements reported in ChEMBL document CHEMBL5325431, “Synthesis of thieno[3,2-e]pyrrolo[1,2-a]pyrimidine derivatives and their precursors containing 2-aminothiophenes fragments as anticancer agents for therapy of pulmonary metastatic melanoma” (Eur J Med Chem, 2023).

Assays:
[1] = system: B16-F10; experiment: Cytotoxicity against mouse B16-F10 cells assessed as cell survival incubated for 24 hrs by alamarblue staining based analysis; format: functional; conditions: B16-F10, 24 h
[2] = Cytotoxicity against NF2-deficient mouse MEF cells assessed as cell survival incubated for 24 hrs by alamarblue staining based analysis; format: toxicity
[3] = system: MCF7; experiment: Cytotoxicity against human MCF7 cells assessed as inhibition of cell growth; format: functional, cell-based
[4] = system: JAR; experiment: Cytotoxicity against human JAR cells assessed as inhibition of cell growth; format: functional, cell-based
[5] = system: U-87 MG; experiment: Cytotoxicity against human U-87 MG cells assessed as inhibition of cell growth; format: functional, cell-based, U-87MG ATCC
[6] = system: HCT-116; experiment: Cytotoxicity against human HCT-116 cells assessed as inhibition of cell growth; format: functional, cell-based
[7] = system: B16-F10; experiment: Antitumor activity against metastatic mouse B16-F10 cells implanted in C57BL/6 mouse assessed as number of lung metastases at 9 to 9.5 mg/kg, ip administered for 12 days by histological analysis (reference value: 150 +/- 7); format: functional; conditions: dose 9-9.5 mg/kg, time 12 day
[8] = system: B16-F10; experiment: Antitumor activity against metastatic mouse B16-F10 cells implanted in C57BL/6 mouse assessed as number of lung metastases at 9 to 9.5 mg/kg, ip administered for 15 days by histological analysis (reference value: 175 +/- 10); format: functional; conditions: dose 9-9.5 mg/kg, time 15 day
[9] = system: B16-F10; experiment: Antitumor activity against metastatic mouse B16-F10 cells implanted in C57BL/6 mouse assessed as number of lung metastases at 9 to 9.5 mg/kg, ip administered for 19 days by histological analysis (reference value: 190 +/- 9); format: functional; conditions: dose 9-9.5 mg/kg, time 19 day
[10] = system: B16-F10; experiment: Antitumor activity against metastatic mouse B16-F10 cells implanted in C57BL/6 mouse assessed as number of lung metastases at 9 to 9.5 mg/kg, ip administered for 22 days by histological analysis (reference value: 223 +/- 12); format: functional; conditions: dose 9-9.5 mg/kg, time 22 day
[11] = system: B16-F10; experiment: Antitumor activity against metastatic mouse B16-F10 cells implanted in C57BL/6 mouse assessed as number of lung metastases at 4.6 to 42 mg/kg, ip administered every 3rd day for 22 days measured on day 23 by histological analysis (reference value: 223 +/- 12); format: functional; conditions: dose 4.6-42 mg/kg, time 23 day

Structure (SMILES)	IC50 [1]	IC50 at 24 h [2]	also measured
CCOC(=O)c1c(NC(=C\C(=O)c2ccc(C)cc2)/C(O)=C(\C#N)C(N)=O)sc2c1CCCC2	11.9 µM	> 100 µM	
CCOC(=O)c1c(N2C(N)=C(C(N)=O)C(=O)/C2=C\C(=O)c2ccc(OCC)cc2)sc2c1CCCC2	> 100 µM	> 100 µM	
CCOC(=O)c1c(N2C(N)=C(C(N)=O)C(=O)/C2=C\C(=O)c2ccccc2)sc2c1CCCC2	52.1 µM	> 100 µM	
CCOC(=O)C1=C(N)N(c2sc3c(c2C(=O)OCC)CCCC3)/C(=C/C(=O)c2cccs2)C1=O	57 µM	> 100 µM	
CCOC(=O)C1=C(N)N(c2sc(C)c(C)c2C(=O)OCC)/C(=C/C(=O)c2ccc(OC)cc2)C1=O	41.4 µM	> 100 µM	
CCOC(=O)C1=C(Nc2ccccc2)S/C(=C\C2CCCCC2)C1=O			IC50 [3]: 45.3 µM; IC50 [4]: 95.2 µM
CCOC(=O)c1c(N/C(=C\C(=O)c2ccc(C)cc2)C(O)=C(C#N)C#N)sc2c1CCCCC2	> 100 µM	> 100 µM	
CCOC(=O)C1=C(N)N(c2sc3c(c2C(=O)OCC)CCCC3)/C(=C/C(=O)c2ccc(OC)cc2OC)C1=O	54.1 µM	> 100 µM	
CCOC(=O)C1=C(N)N(c2sc3c(c2C(=O)OCC)CCCCC3)/C(=C/C(=O)c2ccccc2)C1=O	36.2 µM	> 100 µM	
CCOC(=O)c1c(NC(=C\C(=O)c2ccccc2)/C(O)=C(\C#N)C(N)=O)sc2c1CCCC2	14.1 µM	> 100 µM	
CCOC(=O)C1=C2NC(=O)c3c(sc4c3CCCCCC4)N2/C(=C/C(=O)c2ccccc2)C1=O	23.6 µM	> 100 µM	
CCOC(=O)c1c(N2C(N)=C(C(N)=O)C(=O)/C2=C\C(=O)c2ccc(Cl)cc2)sc2c1CCCC2	56.5 µM	> 100 µM	
CCOC(=O)C1=C2NC(=O)c3c(sc4c3CCCC4)N2/C(=C/C(=O)c2ccccc2)C1=O	46.9 µM	> 100 µM	
Cc1ccc(C(=O)/C=C2\C(=O)C(C#N)=C3NC(=O)c4c(sc5c4CCCCC5)N32)cc1	8.8 µM	> 100 µM	
CCOC(=O)c1c(N/C(=C\C(=O)c2ccc(OC)cc2)C(O)=C(C#N)C#N)sc2c1CCCCC2	> 100 µM	> 100 µM	
CCOC(=O)/C(C#N)=C(O)/C(=C/C(=O)c1ccc(C)cc1)Nc1sc(C)c(C)c1C(=O)OCC	44.2 µM	> 100 µM	
CCOC(=O)C1=C(N)N(c2sc(C)c(C)c2C(=O)OCC)/C(=C/C(=O)c2ccccc2)C1=O	41.2 µM	> 100 µM	
COc1ccc(C(=O)/C=C2\C(=O)C(C(N)=O)=C3NC(=O)c4c(sc5c4CCCC5)N32)cc1	42.6 µM	> 100 µM	
CCOC(=O)c1c(N)sc(C(=O)Nc2ccccc2)c1-c1ccccc1			IC50 [5]: 7.4 µM
CCOC(=O)C1=C2NC(=O)c3c(sc(C)c3C)N2/C(=C/C(=O)c2ccc(C)cc2)C1=O	43.6 µM	> 100 µM	
CCOC(=O)C1=C(N)N(c2sc(C)c(C)c2C(=O)OCC)/C(=C/C(=O)c2ccc(Cl)cc2)C1=O	57.3 µM	> 100 µM	
CCOC(=O)c1c(NC(=C\C(=O)c2ccc(C)cc2)/C(O)=C(\C#N)C(N)=O)sc(C)c1C	17.9 µM	> 100 µM	

Structure (SMILES)	IC50 [1]	IC50 at 24 h [2]	also measured
CCOC(=O)C1=C(N)N(c2sc3c(c2C(=O)OCC)CCCC3)/C(=C/C(=O)c2ccc(OC)cc2)C1=O	> 100 µM	> 100 µM	
CCOC(=O)C1=C2NC(=O)c3c(sc4c3CCCC4)N2/C(=C/C(=O)c2cccs2)C1=O	58.6 µM	> 100 µM	
NC(=O)C1=C2NC(=O)c3c(sc4c3CCCC4)N2/C(=C/C(=O)c2ccccc2)C1=O	56.9 µM	> 100 µM	
CCOC(=O)c1c(N2C(N)=C(C(N)=O)C(=O)/C2=C\C(=O)c2ccc(OC)cc2)sc2c1CCCC2	48.1 µM	> 100 µM	
CCOC(=O)C1=C(N)N(c2sc3c(c2C(=O)OCC)CCCC3)/C(=C/C(=O)c2ccc(C)cc2)C1=O	68.4 µM	> 100 µM	
CCOC(=O)c1c(N2C(N)=C(C(N)=O)C(=O)/C2=C\C(=O)c2ccc(OC)cc2OC)sc2c1CCCC2	48.2 µM	> 100 µM	
CCOC(=O)C1=C(N)N(c2sc3c(c2C(=O)OCC)CCCCC3)/C(=C/C(=O)c2ccc(C)cc2)C1=O	25.2 µM	> 100 µM	
CCOC(=O)C1=C2NC(=O)c3c(sc4c3CCCC4)N2/C(=C/C(=O)c2ccc(OC)cc2OC)C1=O	32.6 µM	> 100 µM	
N#CC1=C2NC(=O)c3c(sc4c3CCCCCC4)N2/C(=C/C(=O)c2ccccc2)C1=O	12.6 µM	> 100 µM	
NC(=O)C1=C2NC(=O)c3c(sc4c3CCCCC4)N2/C(=C/C(=O)c2ccccc2)C1=O	24.5 µM	> 100 µM	
CCOC(=O)C1=C2NC(=O)c3c(sc4c3CCCC4)N2/C(=C/C(=O)c2ccc(C)cc2)C1=O	40.5 µM	> 100 µM	
CCOC(=O)c1c(N2C(N)=C(C(N)=O)C(=O)/C2=C\C(=O)c2ccccc2)sc2c1CCCCC2	22.2 µM	> 100 µM	
CCOC(=O)C1=C(N)N(c2sc3c(c2C(=O)OCC)CCCC3)/C(=C/C(=O)c2ccccc2)C1=O	46.7 µM	> 100 µM	
CCOC(=O)C1=C2NC(=O)c3c(sc(C)c3C)N2/C(=C/C(=O)c2ccc(Cl)cc2)C1=O	64.6 µM	> 100 µM	
CCOC(=O)/C(C#N)=C(O)/C(=C/C(=O)c1ccccc1)Nc1sc2c(c1C(=O)OCC)CCCC2	38.6 µM	> 100 µM	
CCOC(=O)c1c(N/C(=C\C(=O)c2ccc(OC)cc2)C(O)=C(C#N)C#N)sc2c1CCCC2	> 100 µM	> 100 µM	
CCOC(=O)/C(C#N)=C(O)/C(=C/C(=O)c1ccc(C)cc1)Nc1sc2c(c1C(=O)OCC)CCCC2	28.9 µM	> 100 µM	
O=C(CSc1nc2sc3c(c2c(=O)n1Cc1ccccc1)CCCC3)NNC(=S)Nc1ccccc1			IC50 [6]: 5.33 µM
CCOC(=O)C1=C2NC(=O)c3c(sc4c3CCCC4)N2/C(=C/C(=O)c2ccc(Cl)cc2)C1=O	54.4 µM	> 100 µM	
CC(=O)O[C@H]1C(=O)[C@@]2(C)[C@H]([C@H](OC(=O)c3ccccc3)[C@]3(O)C[C@H](OC(=O)[C@H](O)[C@@H](NC(=O)c4ccccc4)c4ccccc4)C(C)=C1C3(C)C)[C@]1(OC(C)=O)CO[C@@H]1C[C@@H]2O [PACLITAXEL]			Activity [7]: 158; Activity [8]: 125; Activity [9]: 97; Activity [10]: 80; Activity [11]: 50
CCOC(=O)c1c(N2C(N)=C(C#N)C(=O)/C2=C\C(=O)c2ccc(OC)cc2)sc2c1CCCCC2	9.1 µM	> 100 µM	
CCOC(=O)/C(C#N)=C(O)/C(=C/C(=O)c1ccc(OC)cc1)Nc1sc2c(c1C(=O)OCC)CCCC2	19.7 µM	> 100 µM	
